Assay results taken from publication PMC9687610, “Adenosine-Mimicking Derivatives of 3-Aminopyrazine-2-Carboxamide: Towards Inhibitors of Prolyl-tRNA Synthetase with Antimycobacterial Activity” (Biomolecules, 2022).
≈ marks a conversion by molar mass, not a printed value. Read-outs that look alike come from different tables or passages of the source.

How the values were obtained:
[1] = tested on: Aspergillus flavus CCM 8363; assay: Antifungal microdilution broth (EUCAST), AFla; assay type: cell-based; settings: Aspergillus flavus, CCM8363
[2] = tested on: Mycobacterium smegmatis DSM 43465 (ATCC 607); assay: Microplate Alamar Blue Assay (MABA), M. smegmatis; assay type: cell-based; settings: Mycolicibacterium smegmatis, read-out: M. smegmatis MIC
[3] = tested on: Acinetobacter baumannii DSM 30007 (ATCC 19606); assay: Antibacterial microdilution broth (EUCAST), ACI; assay type: cell-based; settings: Acinetobacter baumannii
[4] = tested on: Lichtheimia corymbifera CCM 8077; assay: Antifungal microdilution broth (EUCAST), LC; assay type: cell-based; settings: Lichtheimia corymbifera, CCM8077
[5] = tested on: Staphylococcus epidermidis CCM 4418 (ATCC 12228); assay: Antibacterial microdilution broth (EUCAST), SE; assay type: cell-based
[6] = tested on: Trichophyton interdigitale CCM 8377 (ATCC 9533); assay: Antifungal microdilution broth (EUCAST), TI; assay type: cell-based; settings: Trichophyton interdigitale
[7] = tested on: Staphylococcus aureus subsp. aureus methicillin-resistant (MRSA) CCM 4750 (ATCC 43300); assay: Antibacterial microdilution broth (EUCAST), MRSA; assay type: cell-based; settings: Staphylococcus aureus
[8] = tested on: M. aurum DSM 43999 (ATCC 23366); assay: Microplate Alamar Blue Assay (MABA), M. aurum; assay type: cell-based; settings: Mycolicibacterium aurum, read-out: M. aurum MIC
[9] = tested on: Candida parapsilosis CCM 8260 (ATCC 22019); assay: Antifungal microdilution broth (EUCAST), CP; assay type: cell-based; settings: Lodderomyces parapsilosis
[10] = tested on: Enterococcus faecalis CCM 4224 (ATCC 29212); assay: Antibacterial microdilution broth (EUCAST), EF; assay type: cell-based; settings: Enterococcus faecalis
[11] = tested on: HepG2 human hepatocellular carcinoma cells; assay: In vitro HepG2 cytotoxicity (CellTiter 96); settings: for IC50: Homo sapiens, HepG2, 24 h, read-out: HepG2 IC50, 24 h incubation, * limit = highest evaluated concentration (precipitation in medium), ** over the 1000 µM limit
[12] = tested on: Escherichia coli CCM 3954 (ATCC 25922); assay: Antibacterial microdilution broth (EUCAST), EC; assay type: cell-based; settings: Escherichia coli
[13] = tested on: Candida tropicalis CCM 8264 (ATCC 750); assay: Antifungal microdilution broth (EUCAST), CT; assay type: cell-based; settings: Candida tropicalis
[14] = tested on: Aspergillus fumigatus ATCC 204305; assay: Antifungal microdilution broth (EUCAST), AF; assay type: cell-based; settings: Aspergillus fumigatus, ATCC204305
[15] = tested on: Candida krusei CCM 8271 (ATCC 6258); assay: Antifungal microdilution broth (EUCAST), CK; assay type: cell-based; settings: Pichia kudriavzevii
[16] = tested on: Mycobacterium tuberculosis H37Ra ITM-M006710 (ATCC 9431); assay: Microplate Alamar Blue Assay (MABA), Mtb H37Ra; assay type: cell-based; settings: Mycobacterium tuberculosis, 120 h, pH 6.6, MABA, Middlebrook 7H9 broth pH 6.6, resazurin after 120 h; read-out: Mtb H37Ra MIC
[17] = tested on: Pseudomonas aeruginosa CCM 3955 (ATCC 27853); assay: Antibacterial microdilution broth (EUCAST), PA; assay type: cell-based; settings: Pseudomonas aeruginosa
[18] = tested on: Staphylococcus aureus subsp. aureus CCM 4223 (ATCC 29213); assay: Antibacterial microdilution broth (EUCAST), SA; assay type: cell-based; settings: Staphylococcus aureus
[19] = tested on: Candida albicans CCM 8320 (ATCC 24433); assay: Antifungal microdilution broth (EUCAST), CA; assay type: cell-based; settings: Candida albicans
[20] = tested on: Klebsiella pneumoniae CCM 4415 (ATCC 10031); assay: Antibacterial microdilution broth (EUCAST), KP; settings: for KP MIC: read after 24 h; for MIC: Klebsiella pneumoniae
[21] = read after 24 h, read-out: AFla MIC
[22] = read after 24 h, read-out: ACI MIC
[23] = read after 24 h, read-out: LC MIC
[24] = read after 24 h, read-out: SE MIC
[25] = read after 24 h, read-out: MRSA MIC
[26] = read after 24 h, read-out: CP MIC
[27] = read after 24 h, read-out: EF MIC
[28] = read after 24 h, read-out: EC MIC
[29] = read after 24 h, read-out: CT MIC
[30] = read after 24 h, read-out: AF MIC
[31] = read after 24 h, read-out: CK MIC
[32] = read after 24 h, read-out: PA MIC
[33] = read after 24 h, read-out: SA MIC
[34] = read after 24 h, read-out: CA MIC
[35] = internal quality control, 90% growth inhibition, 48 h (moulds), 530 nm, read-out: MIC, spectrophotometric detection*
[36] = internal quality control, no visible growth, 48 h (moulds), read-out: MIC, visual detection**
[37] = internal quality control, 90% growth inhibition, 24 h, 530 nm, read-out: MIC, spectrophotometric detection*
[38] = internal quality control, no visible growth, 24 h, read-out: MIC, visual detection**
[39] = internal quality control, 95% growth inhibition, 24 h, 530 nm, read-out: MIC, spectrophotometric detection
[40] = internal quality control, no visible growth, 24 h, read-out: MIC, visual detection
[41] = internal quality control, 50% growth inhibition, 48 h (moulds), 530 nm, read-out: MIC, spectrophotometric detection***
[42] = internal quality control, 50% growth inhibition, 24 h, 530 nm, read-out: MIC, spectrophotometric detection***

## NC(=O)c1nccnc1NC(=O)c1ccccc1 [Compound 1]
[1]; [21]
  MIC: > 500 µM
[2]; MABA, resazurin after 48 h
  MIC: ≥ 500 µg/mL
[3]; [22]
  MIC: > 500 µM
[4]; [23]
  MIC: > 500 µM
[5]; [24]
  MIC: > 500 µM
[6]; 72 h, read-out: TI MIC
  MIC: > 500 µM
[7]; [25]
  MIC: > 500 µM
[8]; MABA, resazurin after 72 h
  MIC: ≥ 500 µg/mL
[9]; [26]
  MIC: > 500 µM
[10]; [27]
  MIC: > 500 µM
[11]
  IC50: > 250 µM
[12]; [28]
  MIC: > 500 µM
[13]; [29]
  MIC: > 500 µM
[14]; [30]
  MIC: > 500 µM
[15]; [31]
  MIC: > 500 µM
[16]
  MIC: 250 µg/mL (≈ 1030 µM)
[17]; [32]
  MIC: > 500 µM
[18]; [33]
  MIC: > 500 µM
[19]; [34]
  MIC: > 500 µM
[20]
  KP MIC: > 500 µM

## NC(=O)c1nccnc1NC(=O)c1ccccc1Cl [Compound 13]
[1]; [21]
  MIC: > 500 µM
[2]; MABA, resazurin after 48 h
  MIC: ≥ 500 µg/mL
[3]; [22]
  MIC: > 500 µM
[4]; [23]
  MIC: > 500 µM
[5]; [24]
  MIC: > 500 µM
[6]; 72 h, read-out: TI MIC
  MIC: > 500 µM
[7]; [25]
  MIC: > 500 µM
[8]; MABA, resazurin after 72 h
  MIC: ≥ 500 µg/mL
[9]; [26]
  MIC: > 500 µM
[10]; [27]
  MIC: > 500 µM
[11]
  IC50: > 250 µM
[12]; [28]
  MIC: > 500 µM
[13]; [29]
  MIC: > 500 µM
[14]; [30]
  MIC: > 500 µM
[15]; [31]
  MIC: > 500 µM
[16]
  MIC: ≥ 500 µg/mL
[17]; [32]
  MIC: > 500 µM
[18]; [33]
  MIC: > 500 µM
[19]; [34]
  MIC: > 500 µM
[20]
  KP MIC: > 500 µM

## NC(=O)c1nccnc1NC(=O)c1cccc(Cl)c1 [Compound 14]
[1]; [21]
  MIC: > 125 µM
[2]; 48 h
  MIC: ≥ 125 µg/mL
[3]; [22]
  MIC: > 125 µM
[4]; [23]
  MIC: > 125 µM
[5]; [24]
  MIC: > 125 µM
[6]; 72 h, read-out: TI MIC
  MIC: > 125 µM
[7]; [25]
  MIC: > 125 µM
[8]; 72 h
  MIC: ≥ 125 µg/mL
[9]; [26]
  MIC: > 125 µM
[10]; [27]
  MIC: > 125 µM
[11]; HepG2 cell culture medium
  solubility in the testing medium (in words): low solubility
[11]
  IC50: > 25 µM
[12]; [28]
  MIC: > 125 µM
[13]; [29]
  MIC: > 125 µM
[14]; [30]
  MIC: > 125 µM
[15]; [31]
  MIC: > 125 µM
[16]
  MIC: ≥ 125 µg/mL
[17]; [32]
  MIC: > 125 µM
[18]; [33]
  MIC: > 125 µM
[19]; [34]
  MIC: > 125 µM
[20]
  KP MIC: > 125 µM

## NC(=O)c1nccnc1NC(=O)C12CC3CC(CC(C3)C1)C2 [Compound 28]
[1]; [21]
  MIC: > 500 µM
[2]; MABA, resazurin after 48 h
  MIC: 125 µg/mL (≈ 416 µM)
[3]; [22]
  MIC: > 500 µM
[4]; [23]
  MIC: > 500 µM
[5]; [24]
  MIC: > 500 µM
[6]; 72 h, read-out: TI MIC
  MIC: 125 µM
[7]; [25]
  MIC: > 500 µM
[8]; MABA, resazurin after 72 h
  MIC: 125 µg/mL (≈ 416 µM)
[9]; [26]
  MIC: > 500 µM
[10]; [27]
  MIC: > 500 µM
[11]
  IC50: 367 µM
[12]; [28]
  MIC: > 500 µM
[13]; [29]
  MIC: > 500 µM
[14]; [30]
  MIC: > 500 µM
[15]; [31]
  MIC: 500 µM
[16]
  MIC: 31.2 µg/mL (≈ 104 µM)
[17]; [32]
  MIC: > 500 µM
[18]; [33]
  MIC: > 500 µM
[19]; [34]
  MIC: 500 µM
[20]
  KP MIC: > 500 µM

## O=C(NC1Cc2ccccc2C1)c1nccnc1NC(=O)C1CCCCC1 [Compound 38, reference compound]
[2]; MABA, resazurin after 48 h
  MIC: ≥ 500 µg/mL
[8]; MABA, resazurin after 72 h
  MIC: ≥ 500 µg/mL
[11]
  IC50: 19.6 µM
[16]
  MIC: 62.5 µg/mL (≈ 171 µM)

## C[C@@H]1[C@H](O)[C@@H](C)/C=C/C=C/C=C/C=C/C=C/C=C/C=C/[C@H](O[C@@H]2O[C@H](C)[C@@H](O)[C@H](N)[C@@H]2O)C[C@@H]2O[C@](O)(C[C@@H](O)C[C@@H](O)[C@H](O)CC[C@@H](O)C[C@@H](O)CC(=O)O[C@H]1C)C[C@H](O)[C@H]2C(=O)O [amphotericin B, reference compound]
[1]; [35]
  MIC: 4 µg/mL
[1]; [36]
  MIC: 4 µg/mL
[4]; [35]
  MIC: 0.125 µg/mL
[4]; [36]
  MIC: 0.125 µg/mL
[6]; [35]
  MIC: 1 µg/mL
[6]; [36]
  MIC: 1 µg/mL
[9]; [37]
  MIC: 0.5 µg/mL
[9]; [38]
  MIC: 0.5 µg/mL
[13]; [37]
  MIC: 1 µg/mL
[13]; [38]
  MIC: 1 µg/mL
[14]; [35]
  MIC: 1 µg/mL
[14]; [36]
  MIC: 1 µg/mL
[15]; [37]
  MIC: 0.5 µg/mL
[15]; [38]
  MIC: 0.5 µg/mL
[19]; [37]
  MIC: 0.5 µg/mL
[19]; [38]
  MIC: 0.5 µg/mL

## CNC(C)C1CCC(N)C(OC2C(N)CC(N)C(OC3OCC(C)(O)C(NC)C3O)C2O)O1 (stereo not shown) [gentamicin, reference compound]
[3]; [39]
  MIC: 8 µg/mL
[3]; [40]
  MIC: 8 µg/mL
[5]; [39]
  MIC: 0.125 µg/mL
[5]; [40]
  MIC: 0.125 µg/mL
[7]; [39]
  MIC: > 8 µg/mL
[7]; [40]
  MIC: > 8 µg/mL
[10]; [39]
  MIC: > 8 µg/mL
[10]; [40]
  MIC: > 8 µg/mL
[12]; [39]
  MIC: 1 µg/mL
[12]; [40]
  MIC: 1 µg/mL
[17]; [39]
  MIC: 0.5 µg/mL
[17]; [40]
  MIC: 0.5 µg/mL
[18]; [39]
  MIC: 1 µg/mL
[18]; [40]
  MIC: 0.5 µg/mL
[20]; 24 h, read-out: MIC, visual detection
  MIC: 0.5 µg/mL (≈ 1.05 µM)
[20]; ATCC10031|CCM4415, 24 h, read-out: MIC, spectrophotometric detection
  MIC: 0.5 µg/mL (≈ 1.05 µM)

## C[C@@H](c1ncncc1F)[C@](O)(Cn1cncn1)c1ccc(F)cc1F [voriconazole, reference compound]
[1]; [41]
  MIC: 1 µg/mL
[1]; [36]
  MIC: > 16 µg/mL
[4]; [41]
  MIC: > 16 µg/mL
[4]; [36]
  MIC: > 16 µg/mL
[6]; [41]
  MIC: > 16 µg/mL
[6]; [36]
  MIC: > 16 µg/mL
[9]; [42]
  MIC: 0.03 µg/mL
[9]; [38]
  MIC: > 16 µg/mL
[13]; [42]
  MIC: 0.0625 µg/mL
[13]; [38]
  MIC: > 16 µg/mL
[14]; [41]
  MIC: 0.25 µg/mL
[14]; [36]
  MIC: 1 µg/mL
[15]; [42]
  MIC: 0.25 µg/mL
[15]; [38]
  MIC: > 16 µg/mL
[19]; [42]
  MIC: 0.03 µg/mL
[19]; [38]
  MIC: > 16 µg/mL
